Values joined by “and” are separate entries in the source; they are usually repeats but may differ in a detail not shown here. Equal entries are not always repeated. Inconclusive results and toxic doses are left out. Rule as the data show it: active = T/C of 150% or more; inactive = T/C below 125%.
Test system: L1210 leukemia ip in BDF1 mice, survival T/C
Assay: NCI In Vivo Anticancer Drug Screen. Data for tumor model L1210 Leukemia (intraperitoneal) in B6D2F1 (BDF1) mice
Details: endpoint: mean survival time, higher = longer survival
Outline: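 Each compound was tested against a transplantable tumor grown in mice. The endpoint was survival, with treated animals benchmarked against vehicle controls as a simple ratio.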

[1] = dose: 100.0 mg/kg/injection, schedule: Q04DX002 (ip), vehicle: saline with Tween-80
[2] = dose: 200.0 mg/kg/injection, schedule: Q04DX002 (ip), vehicle: saline with Tween-80
[3] = dose: 400.0 mg/kg/injection, schedule: Q04DX002 (ip), vehicle: saline with Tween-80
[4] = dose: 100.0 mg/kg/injection, schedule: Q01DX001 (ip), vehicle: saline
[5] = dose: 200.0 mg/kg/injection, schedule: Q01DX001 (ip), vehicle: saline
[6] = dose: 100.0 mg/kg/injection, schedule: Q01DX009 (ip), vehicle: Klucel (hydroxypropylcellulose) (HPC)
[7] = dose: 200.0 mg/kg/injection, schedule: Q01DX009 (ip), vehicle: Klucel (hydroxypropylcellulose) (HPC)
[8] = dose: 400.0 mg/kg/injection, schedule: Q01DX009 (ip), vehicle: Klucel (hydroxypropylcellulose) (HPC)
[9] = dose: 200.0 mg/kg/injection, schedule: Q01DX001 (ip), vehicle: carboxymethylcellulose (CMC)
[10] = dose: 400.0 mg/kg/injection, schedule: Q01DX001 (ip), vehicle: carboxymethylcellulose (CMC)
[11] = dose: 100.0 mg/kg/injection, schedule: Q04DX003 (ip), vehicle: saline with Tween-80
[12] = dose: 100.0 mg/kg/injection, schedule: Q01DX009 (ip), vehicle: saline with Tween-80
[13] = dose: 200.0 mg/kg/injection, schedule: Q01DX009 (ip), vehicle: saline with Tween-80

Measured: T/C

NOC(=O)c1cccc(Cl)c1
inactive: [1] 94 % of control | [2] 105 % of control | [3] 96 % of control

NC(CSS(=O)(=O)O)=NCCCOCc1ccccc1
inactive: dose: 12.5 mg/kg/injection, schedule: Q04DX002 (ip), vehicle: Klucel (hydroxypropylcellulose) (HPC) 103 % of control | dose: 25.0 mg/kg/injection, schedule: Q04DX002 (ip), vehicle: Klucel (hydroxypropylcellulose) (HPC) 93 % of control

COC(=O)c1c([N+](=O)[O-])ncn1C1OC(COC(C)=O)C(OC(C)=O)C1OC(C)=O (configuration not stated)
inactive: [4] 102 % of control | [5] 103 % of control | dose: 400.0 mg/kg/injection, schedule: Q01DX001 (ip), vehicle: saline 94 % of control

CN(C)CCCNC1=C(Cl)C(=O)C(NCCCN(C)C)=C(Cl)C1=O
inactive: dose: 100.0 mg/kg/injection, schedule: Q04DX003 (ip), vehicle: acetone 89 % of control

COc1ccc([N+](=O)[O-])cc1NC(=O)N/N=C(\C)C(C)(C)C
inactive: [6] 94 % of control | [7] 102 % of control | [8] 86 % of control

COc1ccc(NC(=O)Nc2cccc(C)c2C)cc1
inactive: dose: 100.0 mg/kg/injection, schedule: Q01DX009 (ip), vehicle: gum acacia 96 % of control | dose: 100.0 mg/kg/injection, schedule: Q04DX003 (ip), vehicle: gum acacia 99 % of control | dose: 200.0 mg/kg/injection, schedule: Q01DX009 (ip), vehicle: gum acacia 97 % of control | dose: 200.0 mg/kg/injection, schedule: Q04DX003 (ip), vehicle: gum acacia 91 % of control | dose: 400.0 mg/kg/injection, schedule: Q01DX009 (ip), vehicle: gum acacia 94 % of control | dose: 400.0 mg/kg/injection, schedule: Q04DX003 (ip), vehicle: gum acacia 89 % of control

Cn1c(N)c(N=Cc2ccc(C=Nc3c(N)n(C)c(=O)n(C)c3=O)cc2)c(=O)n(C)c1=O
inactive: dose: 50.0 mg/kg/injection, schedule: Q01DX001 (ip), vehicle: carboxymethylcellulose (CMC) 88 % of control | [9] 96 % of control | [10] 90 % of control

Cc1ccc([N+](=O)[O-])c(P(=O)(O)O)c1
inactive: [11] 100 % of control

C/C(=N/NC(=O)c1ccccc1)C(=O)c1ccccc1
inactive: dose: 100.0 mg/kg/injection, schedule: Q01DX001 (ip), vehicle: Klucel (hydroxypropylcellulose) (HPC) 101 % of control | dose: 200.0 mg/kg/injection, schedule: Q01DX001 (ip), vehicle: Klucel (hydroxypropylcellulose) (HPC) 97 % of control | dose: 400.0 mg/kg/injection, schedule: Q01DX001 (ip), vehicle: Klucel (hydroxypropylcellulose) (HPC) 98 % of control

c1cc2c(cc1CNC1CCCCC1)OCO2
inactive: dose: 75.0 mg/kg/injection, schedule: Q01DX001 (ip), vehicle: saline 100 % of control

Cc1cc(NS(=O)(=O)c2ccc(N=Nc3c(N)[nH]c(=S)[nH]c3=O)cc2)nc(C)n1
inactive: [4] 96 % of control | [5] 100 % of control

COc1ccc(OC(=O)Nc2ccc(C)cc2Cl)cc1
inactive: [12] 96 % of control and 104 % of control | [1] 103 % of control and 104 % of control | [13] 97 % of control and 105 % of control | [2] 100 % of control and 107 % of control | dose: 400.0 mg/kg/injection, schedule: Q01DX009 (ip), vehicle: saline with Tween-80 105 % of control and 108 % of control | [3] 96 % of control and 106 % of control

C(=C/n1cnc2ccccc21)/c1ccccc1
inactive: dose: 87.5 mg/kg/injection, schedule: Q04DX003 (ip), vehicle: Klucel (hydroxypropylcellulose) (HPC) 92 % of control | dose: 175.0 mg/kg/injection, schedule: Q04DX003 (ip), vehicle: Klucel (hydroxypropylcellulose) (HPC) 96 % of control | dose: 350.0 mg/kg/injection, schedule: Q04DX003 (ip), vehicle: Klucel (hydroxypropylcellulose) (HPC) 91 % of control

CC1=NN(c2ccccc2)C(=O)C1N=Nc1ccc(S(=O)(=O)Nc2nnc(C)s2)cc1 (configuration not stated)
inactive: dose: 100.0 mg/kg/injection, schedule: Q01DX001 (ip), vehicle: carboxymethylcellulose (CMC) 98 % of control | [9] 106 % of control | [10] 93 % of control

CCOC(=O)/C(C)=C\c1c(C)[nH]c(=O)[nH]c1=O
inactive: dose: 100.0 mg/kg/injection, schedule: Q01DX009 (ip), vehicle: saline 87 % of control | dose: 100.0 mg/kg/injection, schedule: Q04DX003 (ip), vehicle: saline 97 % of control | dose: 200.0 mg/kg/injection, schedule: Q01DX009 (ip), vehicle: saline 94 % of control | dose: 200.0 mg/kg/injection, schedule: Q04DX003 (ip), vehicle: saline 94 % of control | dose: 400.0 mg/kg/injection, schedule: Q01DX009 (ip), vehicle: saline 86 % of control | dose: 400.0 mg/kg/injection, schedule: Q04DX003 (ip), vehicle: saline 92 % of control

Oc1cc(O)c2c(c1)OC(c1ccc(O)c(O)c1)C(OC1(c3cc(O)c(O)c(O)c3)Oc3cc(O)cc(O)c3C(O)C1O)C2 (configuration not stated)
inactive: [12] 95 % of control | [13] 97 % of control

N#CC(Cc1ccccc1Cl)(Cc1ccccc1Cl)c1ccccc1
inactive: [6] 110 % of control | dose: 100.0 mg/kg/injection, schedule: Q04DX003 (ip), vehicle: Klucel (hydroxypropylcellulose) (HPC) 108 % of control | [7] 105 % of control | dose: 200.0 mg/kg/injection, schedule: Q04DX003 (ip), vehicle: Klucel (hydroxypropylcellulose) (HPC) 94 % of control | [8] 105 % of control | dose: 400.0 mg/kg/injection, schedule: Q04DX003 (ip), vehicle: Klucel (hydroxypropylcellulose) (HPC) 108 % of control

Cc1cc(OC(=O)Nc2ccc(Cl)cc2)ccc1Cl
inactive: dose: 100.0 mg/kg/injection, schedule: Q01DX001 (ip), vehicle: other 103 % of control | dose: 100.0 mg/kg/injection, schedule: Q01DX009 (ip), vehicle: other 93 % of control and 100 % of control | dose: 100.0 mg/kg/injection, schedule: Q04DX002 (ip), vehicle: Klucel (hydroxypropylcellulose) (HPC) 106 % of control | dose: 100.0 mg/kg/injection, schedule: Q04DX002 (ip), vehicle: other 95 % of control and 91 % of control | dose: 100.0 mg/kg/injection, schedule: Q04DX003 (ip), vehicle: other 96 % of control | dose: 200.0 mg/kg/injection, schedule: Q01DX001 (ip), vehicle: other 96 % of control | dose: 200.0 mg/kg/injection, schedule: Q01DX009 (ip), vehicle: other 93 % of control and 95 % of control | dose: 200.0 mg/kg/injection, schedule: Q04DX002 (ip), vehicle: Klucel (hydroxypropylcellulose) (HPC) 117 % of control | dose: 200.0 mg/kg/injection, schedule: Q04DX002 (ip), vehicle: other 100 % of control and 91 % of control | dose: 200.0 mg/kg/injection, schedule: Q04DX003 (ip), vehicle: other 91 % of control | dose: 400.0 mg/kg/injection, schedule: Q01DX001 (ip), vehicle: other 96 % of control | dose: 400.0 mg/kg/injection, schedule: Q01DX009 (ip), vehicle: other 92 % of control and 86 % of control | dose: 400.0 mg/kg/injection, schedule: Q04DX002 (ip), vehicle: Klucel (hydroxypropylcellulose) (HPC) 95 % of control | dose: 400.0 mg/kg/injection, schedule: Q04DX002 (ip), vehicle: other 91 % of control and 92 % of control | dose: 400.0 mg/kg/injection, schedule: Q04DX003 (ip), vehicle: other 95 % of control

Cc1cc(=O)n(C)c2c(C)cccc12
inactive: [11] 101 % of control | dose: 200.0 mg/kg/injection, schedule: Q04DX003 (ip), vehicle: saline with Tween-80 98 % of control | dose: 400.0 mg/kg/injection, schedule: Q04DX003 (ip), vehicle: saline with Tween-80 98 % of control

Source: PubChem BioAssay AID248 (DTP/NCI, 2004)
